These results are taken from US10292963B2, “Suppression and treatment of viruses” (priority 2013, dated 2019).

SMILES strings stand for the structures.

The nature of the experiment: Additional benefits observed in people taking betaine. The experiment is classed as in vivo, human. An excerpt:
While the main benefit of a person or pet taking vitamin C and betaine in combination is the prevention/suppression of tumors, as mentioned before, additional benefits can be obtained depending upon the levels taken. Betaine is known to improve cardiovascular health, and can benefit people with fatty deposits in the liver. […] After only a few weeks of taking the betaine, cholesterol levels are reduced and the ability to lose weight is improved.

The mark [1] stands for this setting: after only a few weeks of taking the betaine.

For `C[N+](C)(C)CC(=O)[O-]` [betaine, trimethylglycine], under “after a few doses at about one and a half to about three grams per day, especially older people”, the “tendency to be light headed on getting up after prolonged squatting or kneeling” value is on record as “considerably lessened”. Further, under setting [1], the “ability to lose weight” value is “improved” and the cholesterol levels result is “reduced”.
